The experiment relates to HCV genotype 1b replicon. In words: HCV replicon assay, genotype 1b replicon EC50. The settings on record: genotype 1b replicon, read-out: EC50 [gt-1b]. In kind it is cell-based, Hepatitis C virus. As to the method:
Measuring Compound Inhibitory Potency (Genotype 1b Replicon EC50 (nM))
Measurement of inhibition by compounds was performed using the HCV replicon system. Several different replicons encoding different HCV genotypes or mutations were used. In addition, potency measurements were made using different formats of the replicon assay, including different ways of measurements and different plating formats. See Jan M. Vrolijk et al., A replicons-based bioassay for the measurement of interferons in patients with chronic hepatitis C, 110 J. VIROLOGICAL METHODS 201 (2003); Steven S. Carroll et al., Inhibition of Hepatitis C Virus RNA Replication by 2′-Modified Nucleoside Analogs, 278(14) J. BIOLOGICAL CHEMISTRY 11979 (2003). However, the underlying principles are common to all of these determinations, and are outlined below.
Stable neomycin phosphotransferase encoding replicon-harboring cell lines were used, so all cell lines were maintained under G418 selection prior to the assay. In some cases the cell lines encoded a luciferase:Neo^r fusion and could be assayed either directly by determination of RNA copy number, or indirectly through measurement of the luciferase activity.
To initiate an assay, replicon cells were plated in the presence of a dilution series of test compound in the absence of G418. Typically, the assays were performed in a 96-well plate format for manual operation, or a 384 well plate in an automated assay. Replicon cells and compound were incubated for 24-48 hours, depending on the assay. At the end of the assay, cells are washed free of media and compound and then lysed. For direct quantitation, RNA levels were measured by ^32P-probe hybridization and protection, or in a TAQMAN based assay and normalized to cellular cyclophilin A RNA levels. In some cases, luciferase activity was measured using a conventional luciferase assay. In all cases EC50 determinations were calculated as a percent of a DMSO control by fitting the data to a four parameter fit function.
(In general: Replicon systems follow genome replication, usually without infectious particles.)

The structures appear in SMILES notation. Read-outs that look alike come from different tables or passages of the source. Bounds are passed on as bounds.

Broadly, the EC50 is the concentration at which the effect is half-maximal. With `CC(C)(C)OC(=O)N[C@H]1CCCCC/C=C\[C@@H]2C[C@@]2(C(=O)NS(=O)(=O)C2(C)CC2)NC(=O)[C@@H]2C[C@]3(CCc4c(c(-c5cccc(F)c5)nc5ccccc45)O3)CN2C1=O` [Example 13, tert-Butyl (2R,6S,13aS,14aR,16aS,Z)-5′-(3-fluorophenyl)-14a-(1-methylcyclopropylsulfonylcarbamoyl)-5,16-dioxo-1′,2′,3,5,6,7,8,9,10,11,13a,14,14a,15,16,16a-hexadecahydro-1H-spiro[cyclopropa[e]pyrrolo[1,2-a][1,4]diazacyclopentadecine-2,3′-pyrano[2,3-c]quinoline-]-6-ylcarbamate], for the setting “Hepatitis C virus”, the EC50 was 4.23 nM. Still for that read-out and setting: under `CC(C)(C)OC(=O)N[C@H]1CCCCC/C=C\[C@@H]2C[C@@]2(C(=O)NS(=O)(=O)C2(C)CC2)NC(=O)[C@@H]2C[C@@]3(CCc4c(c(-c5cccc(F)c5)nc5ccccc45)O3)CN2C1=O` [Example 14, tert-Butyl (2S,6S,13aS,14aR,16aS,Z)-5′-(3-fluorophenyl)-14a-(1-methylcyclopropylsulfonylcarbamoyl)-5,16-dioxo-1′,2′,3,5,6,7,8,9,10,11,13a,14,14a,15,16,16a-hexadecahydro-1H-spiro[cyclopropa[e]pyrrolo[1,2-a][1,4]diazacyclopentadecine-2,3′-pyrano[2,3-c]quinoline]-6-ylcarbamate] stands 6.5 nM. Same read-out and setting: under `CC(C)(C)OC(=O)N[C@H]1CCCCC/C=C\[C@@H]2C[C@@]2(C(=O)NS(=O)(=O)C2CC2)NC(=O)[C@@H]2C[C@]3(CCc4c(c(-c5cccc(F)c5)nc5ccccc45)O3)CN2C1=O` [Example 15, tert-Butyl (2R,6S,13aS,14aR,16aS,Z)-14a-(cyclopropylsulfonylcarbamoyl)-5′-(3-fluorophenyl)-5,16-dioxo-1′,2′,3,5,6,7,8,9,10,11,13a,14,14a,15,16,16a-hexadecahydro-1H -spiro[cyclopropa[e]pyrrolo[1,2-a][1,4]diazacyclopentadecine-2,3′-pyrano[2,3-c]quinoline]-6-ylcarbamate] stands 9.36 nM; under `CC(C)(C)OC(=O)N[C@H]1CCCCC/C=C\C2CC2(C(=O)NS(=O)(=O)C2(C)CC2)NC(=O)C2C[C@]3(CCc4c(c(C5CC5)nc5ccccc45)O3)CN2C1=O` (stereo partly drawn) [Example 18, tert-Butyl (2R,6S,13aS,14aR,16aS,Z)-5′-cyclopropyl-14a-(1-methylcyclopropylsulfonylcarbamoyl)-5,16-dioxo-1′,2′,3,5,6,7,8,9,10,11,13a,14,14a,15,16,16a-hexadecahydro-1H-spiro[cyclopropa[e]pyrrolo[1,2-a][1,4]diazacyclopentadecine-2,3′-pyrano[2,3-c]quinoline-]-6-ylcarbamate], 0.77 nM; under `CC(C)COC(=O)N[C@H]1CCCCC/C=C\[C@@H]2C[C@@]2(C(=O)NS(=O)(=O)C2(C)CC2)NC(=O)[C@@H]2C[C@]3(CCc4c(c(-c5cccc(F)c5)nc5ccccc45)O3)CN2C1=O` [Example 21, Isobutyl (2R,6S,13aS,14aR,16aS,Z)-5′-(3-fluorophenyl)-14a-(1-methylcyclopropylsulfonylcarbamoyl)-5,16-dioxo-1′,2′,3,5,6,7,8,9,10,11,13a,14,14a,15,16,16a-hexadecahydro-1H-spiro[cyclopropa[e]pyrrolo[1,2-a][1,4]diazacyclopentadecine-2,3′-pyrano[2,3-c]quinoline]-6-ylcarbamate], 0.81 nM. Turning to `CC1(OC(=O)N[C@H]2CCCCC/C=C\[C@@H]3C[C@@]3(C(=O)NS(=O)(=O)C3(C)CC3)NC(=O)[C@@H]3C[C@]4(CCc5c(c(-c6cccc(F)c6)nc6ccccc56)O4)CN3C2=O)CC1` [Example 22, 1-Methylcyclopropyl (2R,6S,13aS,14aR,16aS,Z)-5′-(3-fluorophenyl)-14a-(1-methylcyclopropylsulfonylcarbamoyl)-5,16-dioxo-1′,2′,3,5,6,7,8,9,10,11,13a,14,14a,15,16, 16a-hexadecahydro-1H-spiro[cyclopropa[e]pyrrolo[1,2-a][1,4]diazacyclopentadecine-2,3′-pyrano[2,3-c]quinoline]-6-ylcarbamate], the EC50 (Hepatitis C virus) was found to be 4.14 nM. For `CC(C)(C)NC(=O)N[C@H]1CCCCC/C=C\[C@@H]2C[C@@]2(C(=O)NS(=O)(=O)C2(C)CC2)NC(=O)[C@@H]2C[C@]3(CCc4c(c(-c5cccc(F)c5)nc5ccccc45)O3)CN2C1=O` [Example 23, (2R,6S,13aS,14aR,16aS,Z)-6-(3-tert-Butylureido)-5′-(3-fluorophenyl)-N-(1-methylcyclopropylsulfonyl)-5,16-dioxo-1′,2′,3,5,6,7,8,9,10,11,13a,14,14a,15,16,16a-hexadecahydro-1H-spiro[cyclopropa[e]pyrrolo[1,2-a][1,4]diazacyclopentadecine-2,3′-pyrano[2,3-c]quinoline]-14a-carboxamide], the concentration for a half-maximal effect (EC50) (Hepatitis C virus) worked out at 9.13 nM.

As for `CC1(S(=O)(=O)NC(=O)[C@@]23C[C@H]2/C=C\CCCCC[C@H](NC(=O)CC(F)(F)F)C(=O)N2C[C@@]4(CCc5c(c(-c6cccc(F)c6)nc6ccccc56)O4)C[C@H]2C(=O)N3)CC1` [Example 24, (2R,6S,13aS,14aR,16aS,Z)-5′-(3-Fluorophenyl)-N-(1-methylcyclopropylsulfonyl)-5,16-dioxo-6-(3,3,3-trifluoropropanamido)-1′,2′,3,5,6,7,8,9,10,11,13a,14,14a,15,16, 16a-hexadecahydro-1H-spiro[cyclopropa[e]pyrrolo[1,2-a][1,4]diazacyclopentadecine-2,3′-pyrano[2,3-c]quinoline]-14a-carboxamide], the EC50 (Hepatitis C virus) worked out at 5.92 nM. In the case of `COc1ccc2nc(C(F)(F)F)c3c(c2c1)[C@H](OC(=O)NS(=O)(=O)C1(C)CC1)C[C@]1(C[C@H]2C(=O)N[C@]4(C(=O)NS(=O)(=O)C5(C)CC5)C[C@H]4/C=C\CCCCC[C@H](NC(=O)OC(C)(C)C)C(=O)N2C1)O3` [Example 52, tert-Butyl ((1′R,2S,6S,13aS,14aR,16aS,Z)-9′-methoxy-14a-(((1-methylcyclopropyl)sulfonyl)carbamoyl)-1′-((((1-methylcyclopropyl)sulfonyl)carbamoyl)oxy)-5,16-dioxo-5′-(trifluoromethyl)-1′,2′,3,5,6,7,8,9,10,11,13a,14,14a,15,16,16a-hexadecahydro-1H-spiro[cyclopropa[e]pyrrolo[1,2-a][1,4]diazacyclopentadecine-2,3′-pyrano[2,3-c]quinolin]-6-yl)carbamate], the EC50 amounted to 1.77 nM.

In the case of `COc1ccc2nc(C(F)(F)F)c3c(c2c1)[C@H](OC(=O)NS(=O)(=O)C1(C)CC1)C[C@]1(C[C@H]2C(=O)N[C@]4(C(=O)NS(=O)(=O)C5(C)CC5)C[C@H]4/C=C\CCCCC[C@H](NC(=O)OC(C)(C)C)C(=O)N2C1)O3` [Example 53, tert-Butyl ((1′R,2S,6S,13aS,14aR,16aS,Z)-9′-methoxy-14a-(((1-methylcyclopropyl)sulfonyl)carbamoyl)-1′-((((1-methylcyclopropyl)sulfonyl)carbamoyl)oxy)-5,16-dioxo-5′-(trifluoromethyl)-1′,2′,3,5,6,7,8,9,10,11,13a,14,14a,15,16,16a-hexadecahydro-1H-spiro[cyclopropa[e]pyrrolo[1,2-a][1,4]diazacyclopentadecine-2,3′-pyrano[2,3-c]quinolin]-6-yl)carbamate], the EC50 is 15.9 nM. For the compound `Cc1nc2ccccc2c2c1O[C@]1(CC2)C[C@H]2C(=O)N[C@]3(C(=O)NS(=O)(=O)C4(C)CC4)C[C@H]3/C=C\CCCCC[C@H](NC(=O)NC(C)(C)C)C(=O)N2C1` [Example 76, (2R,6S,12Z,13aS,14aR,16a5)-6-[(tert-butylcarbamoyl)amino]-5′-methyl-N-[(1-methylcyclopropyl)sulfonyl]-5,16-dioxo-1,1′,2′,6,7,8,9,10,11,13a,14,15,16,16a-tetradecahydrospiro[cyclopropa[e]pyrrolo[1,2-a][1,4]diazacyclopentadecine-2,3′-pyrano[2,3-c]quinoline]-14a(5H)-carboxamide], under “Hepatitis C virus”, the 50% effective concentration (EC50) was 11.9 nM.

Consider `CC(C)(C)OC(=O)N[C@H]1CCCCC/C=C\[C@@H]2C[C@@]2(C(=O)O)NC(=O)[C@@H]2C[C@]3(CCc4c(c(-c5cccc(F)c5)nc5ccccc45)O3)CN2C1=O` [Example 77, (2R,6S,12Z,13aS,14aR,16aS)-6-[(tert-butoxycarbonyl)amino]-5′-(3-fluorophenyl)-5,16-dioxo-1,1′,2′,6,7,8,9,10,11,13a,14,15,16,16a-tetradecahydrospiro[cyclopropa[e]pyrrolo[1,2-a][1,4]diazacyclopentadecine-2,3′-pyrano[2,3-c]quinoline]-14a(5H)-carboxylic acid], for which the half-maximal effective concentration (EC50) (Hepatitis C virus) is > 100 nM. On the same count and under the same terms, under `Cc1nc2ccccc2c2c1O[C@]1(CC2)C[C@H]2C(=O)N[C@]3(C(=O)NS(=O)(=O)C4(C)CC4)C[C@H]3/C=C\CCCCC[C@H](NC(=O)OC3(C)CCC3)C(=O)N2C1` [Example 80, 1-methylcyclobutyl [(2R,6S,12Z,13aS,14aR,16aS)-5′-methyl-14a-{[(1-methylcyclopropyl)sulfonyl]carbamoyl}-5,16-dioxo-1,1′,2′,5,6,7,8,9,10,11,13a,14,14a,15,16,16a-hexadecahydrospiro[cyclopropa[e]pyrrolo[1,2-a][1,4]diazacyclopentadecine-2,3′-pyrano[2,3-c]quinolin]-6-yl]carbamate] stands 1.47 nM.

(Values after patent US8987195B2 (priority 2012, dated 2015).)
